Source: ChEMBL document CHEMBL1149841, “Synaptosides A and A1, triterpene glycosides from the sea cucumber Synapta maculata containing 3-O-methylglucuronic acid and their cytotoxic activity against tumor cells” (J Nat Prod, 2008)
Calls of active or inactive are those of the source. The calls are words filed in the database; no cut-off is given here.

Experiments:
[1] = tested on: HeLa; assay: Cytotoxicity against human HeLa cells after 12 hrs by MTS reduction assay; assay type: functional, cell-based
[2] = tested on: HeLa; assay: Cytotoxicity against human HeLa cells after 12 hrs at 14.1 ug/ml by MTS reduction assay; assay type: functional, cell-based

`CO[C@@H]1[C@@H](O)[C@H](O[C@@H]2[C@@H](O)[C@H](O[C@H]3[C@H](O)[C@@H](O)[C@H](O[C@H]4[C@H](O[C@H]5CC[C@]6(C)[C@@H]7CC[C@]89C(=O)O[C@@](C)(CC(=O)CC(C)C)[C@H]8CC[C@@]9(C)C7=CC[C@H]6C5(C)C)OC[C@@H](O[C@@H]5O[C@H](COS(=O)(=O)[O-])[C@@H](O)[C@H](O)[C@H]5O)[C@@H]4O)O[C@@H]3C)O[C@H](CO)[C@H]2O)O[C@H](C(=O)[O-])[C@H]1O.[Na+].[Na+]` [SYNAPTOSIDE A] gave an IC50 [1] of 8.6 µg/mL.
For `CO[C@@H]1[C@@H](O)[C@H](O[C@@H]2[C@@H](O)[C@H](O[C@H]3[C@H](O)[C@@H](O)[C@H](O[C@H]4[C@H](O[C@H]5CC[C@]6(C)C7=C(C(=O)C[C@H]6C5(C)C)[C@]5(C)CC[C@H]6[C@]5(CC7)C(=O)O[C@@]6(C)CC(=O)CC(C)C)OC[C@@H](O[C@@H]5O[C@H](COS(=O)(=O)O)[C@@H](O)[C@H](O)[C@H]5O)[C@@H]4O)O[C@@H]3C)O[C@H](CO)[C@H]2O)O[C@H](C(=O)O)[C@H]1O`, the Activity [2] was “inactive”.
